Test results from patent US9492466B2, “Beta-hydroxy-gamma-aminophosphonates for treating immune disorders” (Nucitec S.A. de C.V., priority 2012, dated 2016).

Legend:
CD4+ counts = conditions: HIV-infected patients, in combination with standard antiretroviral treatment, vs antiretroviral agents with no supplementation; cited from earlier work
blood T-lymphocytes = test: T cell levels in blood of obese rats, 5 weeks of treatment; type: in vivo, obese (fa/fa) Zucker rats; conditions: obese Zucker rats, 100 mg/kg
Procedure: Compound 2 (100 mg/kg) was administered to obese (fa/fa) Zucker rats five days a week for 5 weeks. […] The level of T helper (CD4+) increased; cytotoxic T-lymphocyte(CD8+) levels remained unchanged.
The effect of Compound 2 on T lymphocyte populations in normal and unhealthy rats was investigated. Obese (fa/fa) Zucker rats (ZDF) and lean Wistar rats, as control, were used. Zucker rats present a mutation in the leptin receptor, which is the molecular basis of their characteristic phenotype (loss of satiety). Obese Zucker rats are considered representative of obesity-associated type diabetes in humans. They are hyperlipidaemic, grossly obese, hyperinsulinaemic, insulin resistant, and not prone to ketosis. Metabolic changes related to increased insulin resistance, including oxidative stress, have been implicated in obesity-related pathophysiology. However, most attention in recent years has been devoted to the concept that obesity elicits a chronic low-grade systemic inflammatory state.
In this study, animals were treated with 100 mg/kg of Compound 2 five days a week for 5 weeks. The circulating lymphocyte populations were identified and quantified by flow cytometry using mice monoclonal antibodies against rat CD3+ conjugated with different fluorochromes and analyzed on a FACS Calibur flow cytometer BD using the Cell Quest software.

blood lymphocytes = test: T cell levels in normal rats (flow cytometry of circulating lymphocytes); type: in vivo; conditions: Wistar rats, 22.4 mg/kg
Procedure: The ability of (2R,3S)-(2-hydroxy-5-methyl-3-trimethylammonium-hexyl)-phosphonic acid; iodide (referred to herein as “Compound 1”) to modify the level of blood lymphocytes in rats was investigated. (2R,3S)-(2-hydroxy-5-methyl-3-trimethylammonium-hexyl)-phosphonic acid; iodide (22.4 mg/kg) was administered to Wistar rats 5 days a week for two weeks. The circulating lymphocyte populations were identified and quantified by flow cytometry mice monoclonal antibodies against rat CD3+ conjugated with different fluorochromes and analyzed on a FACS Calibur flow cytometer BD using the Cell Quest software. […] It is noted that administration of Compound 1 increases the levels of T helper (CD4+) and cytotoxic (CD8+) lymphocytes. In addition, an increase in regulatory T cells (CD4+CD25+) (p<0.01) was observed.

Nocardia brasiliensis = test: Reduction in mycetoma development induced in mice; type: in vivo; conditions: Balb-c mice, dexamethasone, 5 mg/kg and 50 mg/kg, after 15 days of treatment
Procedure: The ability of (2R,3S)-(2-hydroxy-5-methyl-3-trimethylammonium-hexyl)-phosphonic acid dimethyl ester; iodide at 5 mg/kg and 50 mg/kg to reduce the mycetoma development induced in mice was investigated. For this, male Balb-c mice weighing 25 grams were used. Mice were treated with dexamethasone (125 mg/kg) and mycetoma was induced with the inoculation Nocardia brasiliensis (15×10^8 cells, se) (FIG. 16).
Mycetoma is a chronic infectious disease that remains localized, involves cutaneous and subcutaneous tissue, fascia, and bone, and is noncontagious. The disease is characterized by tumefaction, draining sinuses, and the presence of sclerotia. The 31 fungi known to cause mycetoma are associated with soil and woody plants. A chronic, tumor-like deforming disease develops during subsequent years following the introduction of the etiologic agent via localized trauma.

[1] = Level of glucose, triglycerides, cholesterol and liver glycogen; type: in vivo, obese (fa/fa) Zucker rats (ZDF); conditions: 100 mg/kg, eight weeks
Procedure: To determine whether the morphological and functional changes (see EXAMPLES 6 and 7) were associated with an improvement in liver metabolism, the levels of glucose, triglycerides and cholesterol were quantified. Obese (fa/fa) Zucker rats (ZDF) and lean rats, as control, were used. Obese (fa/fa) Zucker rats (ZDF) were treated with a daily dose of Compound 2 (100 mg/kg) 5 days a week during eight weeks. Plasma from blood samples was collected, and the triglycerides, cholesterol and glucose levels were quantified by colorimetric methods. Also, liver samples were taken, and liver glycogen was measured.

[2] = test system: liver injury present in obese (fa/fa) Zucker rats (ZDF); test: Histological studies of liver tissue; type: in vivo; conditions: 100 mg/kg
Procedure: The ability of Compound 2 (100 mg/kg) to modify the liver injury present in obese (fa/fa) Zucker rats (ZDF) was investigated. Obese (fa/fa) Zucker rats (ZDF) and lean rats, as control, were used. Obese (fa/fa) Zucker rats (ZDF) were treated with a daily dose of 100 mg/kg of the Compound 2, 5 days a week during eight weeks.
Samples of tissue from liver were taken, and histological sections were made and stained with hematoxylin and eosin from obese (fa/fa) Zucker rats and lean rats.

thymus and spleen = test: Histological studies of thymus and spleen tissue; type: in vivo, obese (fa/fa) Zucker rats; conditions: obese Zucker rats, hematoxylin and eosin
Procedure: Samples of tissue from thymus (FIG. 6) and spleen (FIG. 7) were taken and histological sections were made and stained with hematoxylin and eosin from obese (fa/fa) Zucker rats and lean rats. The histological sections from thymus show a decrease in thymic medulla in samples from obese animals. When animals were treated with Compound 2 for five weeks, a recovery of the cellularity of medulla in this lymphoid organ was observed.

THP-1 cells [3] = test: Cell proliferation of THP-1 cells co-inhibited with hydrocortisone; type: cell-based, human; conditions: hydrocortisone 10 μg/mL, all used concentrations, 48 hours of treatment
Procedure: The ability of (2R,3S)-(2-hydroxy-5-methyl-3-trimethylammonium-hexyl)-phosphonic acid dimethyl ester; iodide to modify the cell proliferation of THP-1 cells was investigated. THP-1 cells were cultured in RPMI 1640 medium supplemented with 10% FBS and 100 U/ml penicillin-streptomycin. Cell cultures were incubated at 37° C. and 5% CO2. THP-1 cells were plated at 1×10^6 cells/ml in 24-well microtiter plates. Cells were co-inhibited with hydrocortisone (10 μg/mL) to inhibit cell proliferation.

THP-1 cells [4] = test: Phagocytic activity of THP-1 cells (yeast phagocytosis, flow cytometry); type: cell-based, human
Procedure: The ability of (2R,3S)-(2-hydroxy-5-methyl-3-trimethylammonium-hexyl)-phosphonic acid dimethyl ester; iodide to induce the phagocytic activity of monocytic cells (THP-1 cells) was investigated. For this, THP-1 cells were differentiated using phorbol myristate 13-acetate (PMA, 100 ng/mL) in order to induce the phagocytic activity of yeast. When the cells were treated with PMA (100 ng/mL) for 48 hours cell differentiation of monocytic cells to macrophages was observed (FIG. 14). Yeast were added to cultured media and the phagocytosis was measured by flow cytometry (FIG. 15). (2R,3S)-(2-hydroxy-5-methyl-3-trimethylammonium-hexyl)-phosphonic acid dimethyl ester; iodide induced the phagocytosis of yeast by macrophages in a similar way that those macrophages treated with PMA alone.

THP-1 cells [5] = test: Cell proliferation of THP-1 cells co-stimulated with lipopolysaccharide; type: cell-based, human
Procedure: The ability of (2R,3S)-(2-hydroxy-5-methyl-3-trimethylammonium-hexyl)-phosphonic acid dimethyl ester iodide to modify the cell proliferation of monocytic cells (THP-1 cells) co-stimulated with lipopolysaccharide was investigated. THP-1 cells, a human monocytic cell line, were used and cultured in RPMI 1640 medium supplemented with 10% FBS and 100 U/ml penicillin-streptomycin. Cell cultures were incubated at 37° C. and 5% CO2. THP-1 cells were plated at 1×10^6 cells/ml in 24-well microtiter plates. Cells were co-stimulated with lipopolysaccharide (LPS, 10 μg/mL) in order to induce cell proliferation. Cells were treated with the compound at different concentrations, and a reduction in the number of cells at 0.01, 10 and 100 μM at 24 hours of treatment were observed (FIG. 12).

ALT, AST and AP in serum = test: Level of liver enzymes (colorimetric); type: in vivo, obese (fa/fa) Zucker rats (ZDF); conditions: obese Zucker rats, 100 mg/kg, p<0.01
Procedure: To determine whether the morphological changes in liver tissue (see EXAMPLE 6) were associated with an improvement in liver function, the levels of liver enzymes were investigated. Obese (fa/fa) Zucker rats (ZDF) and lean rats, as control, were used. Obese (fa/fa) Zucker rats (ZDF) were treated with a daily dose of Compound 2 (100 mg/kg) 5 days a week during eight weeks.
Plasma from blood samples was collected and liver enzymes were quantified by colorimetric methods. Liver enzymes, or liver (hepatic) function tests, are used to determine if the liver is functioning normally, or if it has an injury or disease. Alanine aminotransferase (ALT) is typically used to detect a liver injury or an active or chronic liver problem. Aspartate aminotransferase (AST) is used to detect liver injuries and long-term liver disease. Highly elevated levels of AST may indicate active hepatitis from any cause. Alkaline phosphatase (ALP) is an enzyme found in the bile ducts of the liver. Damage or obstruction of the bile ducts may result in elevated levels of ALP.

[6] = test system: T lymphocyte subpopulations; test: T lymphocyte subpopulations in bloodstream, thymus and spleen, 8 weeks of treatment; type: in vivo, obese (fa/fa) Zucker rats (ZDF); conditions: 100 mg/kg
Source text: To determine whether the increase in lymphocytes is due to an increased production of lymphocytes or their mobility, the levels of T lymphocyte subpopulations in bloodstream, thymus, and spleen from obese (fa/fa) Zucker rats (ZDF) and lean rats (control), after 8 weeks of treatment with Compound 2 was investigated.
Obese rats were used in this study. Lymphocyte populations from bloodstream, thymus, and spleen were identified and quantified by flow cytometry using mice monoclonal antibodies against rat CD3+ conjugated with different fluorochromes and analyzed on a FACS Calibur flow cytometer BD using the Cell Quest software.

Compound: C[N+](C)(C)C[C@H](O)CC(=O)[O-] [L-carnitine]
- improvement in CD4+ counts (CD4+ counts): greater improvement

Compound: (2R,3S)-(2-hydroxy-5-methyl-3-trimethylammonium-hexyl)-phosphonic acid; iodide [Compound 1]
- level of total blood T-lymphocytes (blood T-lymphocytes; five days a week for 5 weeks, vs control group): increased
- level of total T-lymphocytes (blood lymphocytes; 5 days a week for two weeks, vs control group): increased
- levels of T helper (CD4+) lymphocytes (blood lymphocytes; two weeks): increases
- levels of cytotoxic (CD8+) lymphocytes (blood lymphocytes; two weeks): increases
- regulatory T cells (CD4+CD25+) (blood lymphocytes; two weeks, p<0.01): increase

Compound: COP(=O)(C[C@H](O)[C@H](CC(C)C)[N+](C)(C)C)OC [Compound 2, (2R,3S)-(2-hydroxy-5-methyl-3-trimethylammonium-hexyl)-phosphonic acid dimethyl ester; iodide]
- paw thickness (mycetoma) (Nocardia brasiliensis): significant reduction
- amount of glycogen in the liver ([1]; Zucker rats): higher
- cholesterol compared with control (lean) levels ([1]; obese Zucker rats): reached the control levels
- glucose compared with control (lean) levels ([1]; obese Zucker rats): reached the control levels
- cholesterol levels ([1]; obese Zucker rats, p<0.01): significant reduction
- glucose levels ([1]; obese Zucker rats, p<0.01): significant reduction
- triglycerides levels ([1]; obese Zucker rats, p<0.01): significant reduction
- liver histology ([2]; eight weeks, hematoxylin and eosin): normal liver histology
- degree of fat accumulation in the liver ([2]; five days a week for eight weeks): significant reduction
- spleen morphology (white pulp, lymphoid follicles) (thymus and spleen): recovery
- cellularity of medulla in thymus (histology) (thymus and spleen; treated for five weeks): recovery
- cell proliferation (THP-1 cells [3]): induction
- phagocytosis of yeast by macrophages (THP-1 cells [4]; PMA-differentiated THP-1 cells, similar to macrophages treated with PMA alone): induced
- effect of LPS (THP-1 cells [5]; THP-1 cells co-stimulated with LPS 10 μg/mL): inhibit
- number of cells (cell proliferation) (THP-1 cells [5]; THP-1 cells, LPS 10 μg/mL, at 0.01, 10 and 100 μM, 24 hours of treatment): reduction
- cytotoxic T-lymphocyte (CD8+) levels (blood T-lymphocytes; 5 weeks, blood): unchanged
- level of T helper (CD4+) (blood T-lymphocytes; 5 weeks, blood): increased
- T cell populations (blood T-lymphocytes; 5 weeks, similar to healthy Wistar rats, although in minor intensity): increase
- level of ALT in serum (ALT, AST and AP in serum; 5 days a week during eight weeks): significant reduction
- level of AP in serum (ALT, AST and AP in serum; eight weeks): significant reduction
- level of AST in serum (ALT, AST and AP in serum; eight weeks): significant reduction
- cytotoxic lymphocytes ([6]; obese rats, blood): significant increase
- levels of total blood lymphocytes ([6]; obese rats, blood): increased
- subpopulation of T helper cells ([6]; spleen): reduction
- subpopulation of cytotoxic lymphocytes ([6]; spleen): reduction
- total T-lymphocytes ([6]; spleen): decline
- cytotoxic T-lymphocytes ([6]; thymus): increase
- double positive CD8+ CD4+ (DP) lymphocytes ([6]; thymus): slight decrease
- population of double negative CD4-CD8- (DN) lymphocytes ([6]; thymus): slight increase
- population of helper T cells ([6]; thymus): increase

Compound: CCCCCCCCCCCCCC(=O)O[C@@H]1[C@@H](C)[C@@]2(O)[C@@H](C=C(CO)C[C@]3(O)C(=O)C(C)=C[C@@H]23)[C@@H]2C(C)(C)[C@]12OC(C)=O [PMA, phorbol myristate 13-acetate, reference compound]
- cell differentiation of monocytic cells to macrophages (THP-1 cells [4]; THP-1 cells, 100 ng/mL, 48 hours): observed
